Test results published in article PMC4467398, “Preclinical antitumor activity of ST7612AA1: a new oral thiol-based histone deacetylase (HDAC) inhibitor” (Oncotarget, 2014).
Where two headings read alike, the source gives them in different places.

Columns and labels:
[1] = tested on: GCB-DLBCL cell lines; test: In vitro proliferation assay, lymphoma panel (summary); type: cell-based; settings: Homo sapiens
Method: (§1) Anti-proliferative activity was first assessed on a panel of cell lines derived from solid tumors and hematological cancers and then on a large panel of cell lines derived from mature B-cell lymphomas. […] Lymphoma cells were seeded in 96-wells tissue culture plates in complete medium and were exposed to increasing concentrations of ST7612AA1 for 48 or 72 h; the anti-proliferative activity was assessed using 3-(4,5-dimethylthiazol-2-yl)-2,5-diphenyltetrazolium bromide (MTT). The drug potency was evaluated by means of the “ALLFIT” computer program and defined as IC50 (drug concentration required for 50% inhibition of cell survival).

[2] = tested on: splenic marginal zone lymphoma (SMZL) cell lines; test: as above; type: cell-based; settings: Homo sapiens
Method: as §1

[3] = tested on: mature B cell lymphomas; test: as above; type: cell-based; settings: Homo sapiens, different mature B cell lymphomas
Method: as §1

[4] = tested on: mantle cell lymphoma (MCL) cell lines; test: as above; type: cell-based; settings: Homo sapiens
Method: as §1

[5] = tested on: ABC-DLBCL cell lines; test: as above; type: cell-based; settings: Homo sapiens
Method: as §1

[6] = tested on: Acute myeloid leukemia MV4;11 xenograft; test: In vivo xenograft model, oral ST7612AA1; set-up: species or system nude mice; settings: 60 mg/10 mL/kg oral, Qdx5/wx3w
Method: (§2) Experiments on solid tumor and acute leukemia in vivo models were carried out at Sigma-Tau (Rome, Italy) using female athymic nude mice, 5-6 weeks-old (Harlan Laboratories, Udine, IT). Mice were maintained in laminar flow rooms with constant temperature and humidity in according to the NIH guidelines. The following human tumor xenograft models were used for antitumor activity studies: HCT116 derived from colon carcinoma), MV4;11 from acute myeloid leukaemia (AML), SKOV-3 from ovarian carcinoma, and NCI-H1975 from non-small cell lung cancer (NSCLC). Exponentially growing tumor cells were s.c. inoculated (5×10^6/mouse) in the right flank of nude mice. Groups of eight mice/group were employed to assess antitumor activity. MDA-MB436 breast carcinoma (3×10^6 cells/0.1 mL of M199/Matrigel GFR 50:50, vol/vol solution) was inoculated in mammary fat pad (mfp). Drug treatments were started from 3 to 11 days after tumor injection, depending on the tumor growth of the xenografted cancer model. ST7612AA1 was given daily for five days per week (qdx5/w). Tumor growth was followed by measurements of tumor diameters with a Vernier caliper. Tumor volume (TV) was calculated using the formula: TV (mm^3) = [d^2 x D]/2, where d and D are the shortest and the longest diameter, respectively. The efficacy of the drug treatment was assessed as: TV inhibition percentage (TVI%) in treated versus control mice, calculated as: TVI%=100-(mean TV treated/mean TV control x100). When tumors reached a volume of 500-1000 mm^3, mice were sacrificed by cervical dislocation. To examine the possible toxicity of treatment, body weight was recorded throughout the study. BWL% (body weight loss) was calculated as 100 – (mean BWdayx/mean BWday1x100), where day 1 is the first day of treatment and day x is any day after (maximum BWL%). DT as doubling time of control tumors was also evaluated.

[7] = tested on: Ovarian cancer SKOV-3 xenograft; test: In vivo xenograft model, oral ST7612AA1; set-up: species or system nude mice; settings: 60 mg/10 mL/kg oral, Qdx5/wx4w
Method: as §2

[8] = tested on: Colon cancer HCT-116 xenograft; test: In vivo xenograft model, oral ST7612AA1; set-up: species or system nude mice; settings: 60 mg/10 mL/kg oral, Qdx5/wx3w
Method: as §2

[9] = tested on: Breast cancer MDA-MB436 xenograft; test: In vivo xenograft model, oral ST7612AA1; set-up: species or system nude mice; settings: 60 mg/10 mL/kg oral, Qdx5/wx4w
Method: as §2

[10] = tested on: NSCLC NCI-H1975 xenograft; test: In vivo xenograft model, oral ST7612AA1; set-up: species or system nude mice; settings: 60 mg/10 mL/kg oral, Qdx5/wx2w
Method: as §2

[11] = tested on: Breast cancer MDA-MB436; test: In vitro proliferation assay (sulphorodamine B); type: cell-based; settings: Homo sapiens, MDA-MB-436, 72 h, mean ± S.E.M.
[12] = tested on: Ovarian cancer A2780; test: In vitro proliferation assay (sulphorodamine B); type: cell-based; settings: Homo sapiens, 72 h, mean ± S.E.M.
[13] = tested on: acetylation of histone H4 in NCI-H460 NSCLC cells; test: Western blot with densitometry, histone H4 acetylation; type: cell-based, human; settings: for Acetyl H4/H4: vehicle 0,0274
Method: For assessing the in vitro effect of ST7612AA1 on acetylation of α-tubulin and histones, NSCLC cells were treated with the test compound at various concentrations (dose-response curve). SAHA 5 μM was used as reference inhibitor. Protein extraction, separation and immunoblotting were performed as previously described. Immunoreactive bands were finally subjected to densitometry analysis by a phosphoimaging system (STORM, Molecular Dynamics), and then the IC50 values were calculated by the “ALLFIT” computer program. The antibodies used are listed in Supplementary Table 2.

[14] = tested on: NSCLC NCI-H460; test: In vitro proliferation assay (sulphorodamine B); type: cell-based; settings: Homo sapiens, 72 h, mean ± S.E.M.
[15] = tested on: HCT116 tumor xenografts; test: Western blot of tumor xenografts after oral ST7612AA1; type: in vivo, nude mice; settings: xenografts collected 24 h after the last oral administration; 80 mg/10 mL/kg qdx5/wx3w
Method: In order to assess the in vivo effect of ST7612AA1 on the acetylation degree of α-tubulin and histones, and on the expression of other key proteins, HCT116 tumor xenografts (3 samples/group) were excised at different times after the last treatment, and then total protein lysates were prepared through the homogenization of tumor samples in lysis buffer containing 0.5% NP-40, supplemented with 10 μg/mL of protease inhibitor cocktail (Sigma Chemical Co., St. Louis, MO, USA). Determination of the protein concentration and Western Blotting analysis were finally performed as above described for the in vitro experiments. The antibodies used are listed in Supplementary Table 2.

[16] = tested on: Acute myeloid leukemia U937; test: In vitro proliferation assay (sulphorodamine B); type: cell-based; settings: Homo sapiens, U-937, 72 h, mean ± S.E.M.
[17] = tested on: Breast cancer MDA-MB231; test: In vitro proliferation assay (sulphorodamine B); type: cell-based; settings: Homo sapiens, MDA-MB-231, 72 h, mean ± S.E.M.
[18] = tested on: Colon cancer HCT116; test: In vitro proliferation assay (sulphorodamine B); type: cell-based; settings: Homo sapiens, HCT-116, 72 h, mean ± S.E.M.

## CC(=O)SCCCCC[C@H](NC(=O)[C@H]1CCC(=O)N1)C(=O)Nc1ccccc1 [ST7612AA1]
[1]; read-out: IC50 range
  IC50: 46 to 2660 nM
[1]; read-out: median IC50
  IC50: 597 nM
[2]; read-out: IC50 range
  IC50: 102 to 257 nM
[2]; read-out: median IC50
  IC50: 119 nM
[3]; read-out: IC50 range
  IC50: 46 to 2660 nM
[3]; read-out: median IC50
  IC50: 375 nM
[4]; read-out: IC50 range
  IC50: 248 to 553 nM
[4]; read-out: median IC50
  IC50: 433 nM
[5]; read-out: IC50 range
  IC50: 101 to 805 nM
[5]; read-out: median IC50
  IC50: 257 nM
[6]; maximum body weight loss
  BWL% max: 4%
[6]; mice dead from toxicity/total
  Lethal toxicity: 0/8
[7]; maximum body weight loss
  BWL% max: 1%
[7]; mice dead from toxicity/total
  Lethal toxicity: 0/8
[8]; maximum body weight loss
  BWL% max: 1%
[8]; mice dead from toxicity/total
  Lethal toxicity: 0/8
[9]; maximum body weight loss
  BWL% max: 4%
[9]; mice dead from toxicity/total
  Lethal toxicity: 0/8
[10]; maximum body weight loss
  BWL% max: 4%
[10]; mice dead from toxicity/total
  Lethal toxicity: 0/8
[11]
  IC50: 180 ± 10 nM
[12]
  IC50: 43 ± 10 nM
[13]; 0,2 µM, NCI-H460
  Acetyl H4/H4: 0,3352
[13]; 0,04 µM, NCI-H460
  Acetyl H4/H4: 0,3092
[13]; 1 µM, NCI-H460
  Acetyl H4/H4: 0,3757
[13]; Homo sapiens, NCI-H460, 3 h exposure, Western blot densitometry, read-out: IC50 for increasing the acetylation of histone H4
  IC50: 4.8 nM
[13]; NCI-H460
  fold more potent in increasing acetylation of histone H4 than of tubulin: 40 fold
[14]
  IC50: 66 ± 10 nM
[15]
  HSP70 levels: significant increase
  HSP90 protein levels: dramatic decrease
  acetylated α-tubulin levels: increased levels
  pan H3 acetylation: strong induction
[16]
  IC50: 49 nM
[17]
  IC50: 230 nM
[18]
  IC50: 75 ± 10 nM
